Data: publication PMC10283505, “CVM-1118 (foslinanib), a 2-phenyl-4-quinolone derivative, promotes apoptosis and inhibits vasculogenic mimicry via targeting TRAP1” (Pathology and Oncology Research, 2023)

How the values were obtained:
[1] = tested on: Nodal; assay: qPCR analysis of Nodal expression; type: cell-based, human; details: C8161, 10 nM, 8–72 h
Method: For the qPCR analysis of Nodal and Notch expression, total RNA was isolated from cells using the PerfectPure RNA Cell Isolation kit (5Prime) and then reverse-transcribed using 1 μg RNA, RT master mix cocktail and MMLV reverse transcriptase. qPCR was performed on a 7500 Real-Time PCR System (Life Technologies) using manufacturer recommended protocol. TaqMan gene expression human primer/probe sets (Applied Biosystems) utilized were Nodal (Hs00250630_s1) and Notch4 (Hs00270200_m1). Target gene expression was normalized to appropriate house-keeping genes (e.g., RPLP0 or GAPDH). Data was analyzed using Life Technologies Sequence Detection Software.

[2] = biological target: Integrin beta-2 (CD18) (Homo sapiens, UniProt P05107); assay: Surface plasmon resonance (Biacore); type: binding; details: CD18, SPR
[3] = tested on: SNB-19; assay: NCI 60 cytotoxicity screening; type: cell-based; details: Homo sapiens; SNB-19, CNS
[4] = tested on: HCC-2998; assay: NCI 60 cytotoxicity screening; type: cell-based; details: Homo sapiens; HCC-2998, Colon
[5] = biological target: T1, TRAP1 (Homo sapiens, UniProt Q12931); assay: In vitro ATPase assay; type: biochemical; details: data not shown
T1 sequence (Q12931 60-704): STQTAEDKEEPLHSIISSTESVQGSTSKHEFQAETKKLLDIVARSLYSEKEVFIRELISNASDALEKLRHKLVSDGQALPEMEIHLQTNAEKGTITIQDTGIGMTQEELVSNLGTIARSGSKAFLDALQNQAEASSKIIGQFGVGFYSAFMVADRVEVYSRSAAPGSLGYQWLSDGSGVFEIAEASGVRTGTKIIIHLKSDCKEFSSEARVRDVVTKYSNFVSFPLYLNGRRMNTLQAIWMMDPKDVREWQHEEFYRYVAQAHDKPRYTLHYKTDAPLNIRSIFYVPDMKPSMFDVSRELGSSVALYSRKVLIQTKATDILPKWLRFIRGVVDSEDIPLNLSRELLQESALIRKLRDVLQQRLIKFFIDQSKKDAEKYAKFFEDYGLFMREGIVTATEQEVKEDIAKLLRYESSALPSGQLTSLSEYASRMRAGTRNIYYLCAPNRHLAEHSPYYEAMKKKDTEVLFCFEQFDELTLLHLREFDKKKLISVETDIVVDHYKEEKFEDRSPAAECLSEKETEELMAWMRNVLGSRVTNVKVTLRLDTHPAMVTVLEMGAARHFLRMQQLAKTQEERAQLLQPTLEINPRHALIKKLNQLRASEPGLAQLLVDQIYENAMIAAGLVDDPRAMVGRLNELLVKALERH

[6] = tested on: PC-3; assay: NCI 60 cytotoxicity screening; type: cell-based; details: Homo sapiens; PC-3, Prostate
[7] = tested on: OVCAR-3; assay: NCI 60 cytotoxicity screening; type: cell-based; details: Homo sapiens; OVCAR-3, Ovarian
[8] = tested on: MDA-MB-435; assay: NCI 60 cytotoxicity screening; type: cell-based; details: Homo sapiens; MDA-MB-435, Melanoma
[9] = biological target: Renin receptor (ATP6IP2) (Homo sapiens, UniProt O75787); assay: Surface plasmon resonance (Biacore); type: binding; details: ATP6IP2, SPR
[10] = tested on: HCT-116 cells; assay: Flow cytometry cell cycle analysis (PI); type: cell-based, human; details: HCT-116, 48 hours, dose-response
Method: Figure S2 CVM-1125 induced cell cycle arrest at G2/M in HCT-116 cells
Dose-response of CVM-1125 on cell cycle profile in HCT-116 cells was assessed by flow cytometry after treatment for 48 hours. Fluorescent signals of propidium iodide (FL2-A) of single cells were attributed to cell cycle phases and converted into percentage of the whole population of single cells (100%). The data shown are representative of at least three independent experiments.
(1 picture or pasted object on this page, not shown here)

[11] = tested on: K-562; assay: NCI 60 cytotoxicity screening; type: cell-based; details: Homo sapiens, K562; K-562, Leukemia
[12] = tested on: NCI-H460; assay: NCI 60 cytotoxicity screening; type: cell-based; details: Homo sapiens; NCI-H460, NSCLC
[13] = tested on: UACC-62; assay: NCI 60 cytotoxicity screening; type: cell-based; details: Homo sapiens; UACC-62, Melanoma
[14] = biological target: T2, Catenin α2 (Homo sapiens, UniProt P26232); assay: Surface plasmon resonance (Biacore); type: binding; details: Catenin α2, SPR
T2 sequence (P26232 1-953): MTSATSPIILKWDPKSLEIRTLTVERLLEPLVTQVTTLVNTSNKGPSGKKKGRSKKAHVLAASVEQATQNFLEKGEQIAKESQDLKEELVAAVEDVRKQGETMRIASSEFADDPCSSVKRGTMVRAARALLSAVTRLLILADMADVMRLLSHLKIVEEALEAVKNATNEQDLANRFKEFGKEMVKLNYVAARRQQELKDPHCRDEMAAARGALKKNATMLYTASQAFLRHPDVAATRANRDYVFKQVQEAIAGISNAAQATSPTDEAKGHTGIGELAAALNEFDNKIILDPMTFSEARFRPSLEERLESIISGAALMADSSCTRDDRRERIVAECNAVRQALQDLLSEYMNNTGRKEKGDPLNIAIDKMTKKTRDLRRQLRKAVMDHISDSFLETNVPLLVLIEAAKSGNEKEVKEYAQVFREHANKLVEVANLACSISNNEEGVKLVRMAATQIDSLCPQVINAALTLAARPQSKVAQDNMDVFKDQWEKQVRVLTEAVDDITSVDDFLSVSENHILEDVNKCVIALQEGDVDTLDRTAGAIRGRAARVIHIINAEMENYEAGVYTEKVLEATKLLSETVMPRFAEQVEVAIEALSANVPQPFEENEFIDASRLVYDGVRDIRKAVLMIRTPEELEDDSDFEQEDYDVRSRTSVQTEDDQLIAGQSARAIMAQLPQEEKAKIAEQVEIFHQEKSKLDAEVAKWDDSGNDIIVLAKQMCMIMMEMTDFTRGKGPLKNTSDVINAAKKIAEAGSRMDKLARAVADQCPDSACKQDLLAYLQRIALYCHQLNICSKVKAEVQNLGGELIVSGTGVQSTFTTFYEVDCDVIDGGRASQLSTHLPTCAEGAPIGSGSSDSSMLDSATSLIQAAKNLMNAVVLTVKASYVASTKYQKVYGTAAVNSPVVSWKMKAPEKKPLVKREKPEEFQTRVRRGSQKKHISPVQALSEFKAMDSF

Integrin beta-2 (CD18), sequence (P05107 23-769): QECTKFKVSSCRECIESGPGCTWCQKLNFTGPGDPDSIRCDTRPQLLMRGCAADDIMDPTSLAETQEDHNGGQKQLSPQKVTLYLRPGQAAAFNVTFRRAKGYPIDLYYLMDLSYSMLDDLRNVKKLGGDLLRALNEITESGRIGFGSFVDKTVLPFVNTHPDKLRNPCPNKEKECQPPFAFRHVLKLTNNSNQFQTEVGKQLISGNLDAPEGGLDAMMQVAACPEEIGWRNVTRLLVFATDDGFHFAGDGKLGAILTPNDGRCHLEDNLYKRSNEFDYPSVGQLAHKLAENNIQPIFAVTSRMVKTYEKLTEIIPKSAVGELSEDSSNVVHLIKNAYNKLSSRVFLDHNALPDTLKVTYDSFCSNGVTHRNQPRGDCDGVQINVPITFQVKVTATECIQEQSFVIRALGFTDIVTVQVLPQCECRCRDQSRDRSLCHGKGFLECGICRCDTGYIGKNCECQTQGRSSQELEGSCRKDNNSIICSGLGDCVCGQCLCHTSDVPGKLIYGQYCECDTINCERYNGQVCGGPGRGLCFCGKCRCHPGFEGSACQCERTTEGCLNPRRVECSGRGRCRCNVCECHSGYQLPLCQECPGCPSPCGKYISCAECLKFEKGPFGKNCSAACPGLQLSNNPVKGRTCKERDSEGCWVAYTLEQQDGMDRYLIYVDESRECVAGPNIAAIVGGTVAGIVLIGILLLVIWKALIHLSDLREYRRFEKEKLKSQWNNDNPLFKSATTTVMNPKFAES
Renin receptor (ATP6IP2), sequence (O75787 17-350): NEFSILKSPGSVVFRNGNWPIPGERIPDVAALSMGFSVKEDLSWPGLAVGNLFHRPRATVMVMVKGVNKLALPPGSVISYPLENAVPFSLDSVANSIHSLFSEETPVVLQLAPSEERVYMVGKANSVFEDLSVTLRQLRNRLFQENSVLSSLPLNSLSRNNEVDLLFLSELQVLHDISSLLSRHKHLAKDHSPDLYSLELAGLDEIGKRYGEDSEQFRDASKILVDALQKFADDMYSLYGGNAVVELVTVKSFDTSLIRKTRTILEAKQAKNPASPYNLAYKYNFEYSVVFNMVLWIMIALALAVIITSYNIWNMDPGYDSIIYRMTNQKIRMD

COc1ccc2[nH]c(-c3cccc(F)c3)cc(=O)c2c1OP(=O)(O)O [CVM-1118]
expression of Nodal (mRNA) [1]: decreased

COc1ccc2[nH]c(-c3cccc(F)c3)cc(=O)c2c1O [CVM-1125]
Dissociation (kd) [2]: 1.08e-05 s⁻¹ | kon ([2]; read-out: Association (ka)): 14.4 M⁻¹ s⁻¹ | Kd ([2]; read-out: KD (kd/ka)): 748 nM | GI50 [3]: 28.8 nM | GI50 [4]: 32.1 nM | influence on the ATPase activity of TRAP1 [5]: no influence | GI50 [6]: 32.6 nM | GI50 [7]: 19.1 nM | GI50 [8]: < 10 nM | Dissociation (kd) [9]: 0.021 s⁻¹ | kon ([9]; read-out: Association (ka)): 122000 M⁻¹ s⁻¹ | Kd ([9]; read-out: KD (kd/ka)): 173 nM | Effect on cell cycle profile [10]: G2/M arrest and increased sub-G1 | GI50 [11]: 24.1 nM | GI50 [12]: 32.8 nM | GI50 [13]: 31 nM | Association (ka) [14]: No dose dependent interaction | Dissociation (kd) [14]: No dose dependent interaction | KD (kd/ka) [14]: No dose dependent interaction
